Experimental data taken from patent US20070219128A1, “Medical and health-care uses of pufferfish type I collagen extract and processes for producing said extract” (NANJING BESSON PHARMACY CO., LTD, priority 2003, published 2007).

Columns and labels:
[1] = tested on: acetic acid-burn induced gastric ulcer in rats; experiment: Acetic acid-burn induced gastric ulcer in rats; format: in vivo; settings: 80 mg/kg, ig; mean ± SD
Protocol: 50 SD rats with a body weight of 180 to 200 g and equal numbers of female and male were provided by the Experimental Animal Center of Nanjing Medical University, and the tests were conducted according to the methods in “Collection of Guidelines for Preclinical Studies Of New Drugs (Western Medicines)” edited by China Ministry of Health.

[2] = tested on: pylorus-ligated Shay rat gastric ulcer; experiment: Pylorus-ligated Shay rat gastric ulcer; format: in vivo, SD rats; settings: 80 mg/kg, ig; mean ± SD
Protocol: 50 SD rats with a body weight of 180 to 200 g and equal numbers of female and male were provided by the Experimental Animal Center of Nanjing Medical University, and the tests were conducted according to the methods in “Collection of Guidelines for Preclinical Studies of New Drugs (Western Medicines)” edited by China Ministry of Health.

[3] = tested on: cysteamine-induced rat duodenal ulcer; experiment: Cysteamine-induced rat duodenal ulcer; format: in vivo, SD rats; settings: 20 mg/kg
Protocol: 50 male SD rats with a body weight of 250 to 300 g were used, and cysteamine was commercially available from Sigma Company. The tests were conducted according to the methods in “Drug Discovery and Evaluation—Pharmacological Assays” (H. G. Vogel, W. H. Vogel. Chinese version, translated by Du Guanhua, published by Science Publishing House).

[4] = tested on: acetic acid-induced rat colonitis; experiment: 10% acetic acid-induced rat ulcerative colonitis; format: in vivo, SD rats; settings: 10 mg/kg, mean ± SD
Protocol: The test was conducted according to the method in the document (Ritzpatrick, R. et al., Agents Actions. 1990, 30:393-402). SD rats were subjected to rectoclysis to form models of colonitis. From the 4th day after the models had been made, the rats were intragastrically administrated for 4 days.

mouse gastric emptying = experiment: Mouse gastric emptying (phenol red method); format: in vivo, Kunming mice; settings: 0.1 mg/kg; mean ± SD
Protocol: 105 Kunming mice with a body weight of from 20 to 25 g and equal numbers of male and female were used. The test was conducted according to the methods in “Collection of Guidelines for Preclinical Studies of New Drugs (Western Medicines)” edited by China Ministry of Health, and the phenol red method (Shi G., et al. Gut, 41:612-618, 1997).

[5] = tested on: TNBS-induced rat colonitis; experiment: TNBS-induced rat colonitis; format: in vivo, SD rats; settings: 0.3 g/kg, intragastric for 7 days; mean ± SD
Protocol: The test was counted according to the method in the document (Morris, C. P. et al: Gastroenterology. 1989, 96:795-803). TNBS was commercially available from Sigma Company. SD rats were subjected to rectoclysis of 100 mg/kg of TNBS to form models of colonitis. Each group included 10 rats. From the 14th day after the models had been made, the rats were intragastrically administrated for 7 days. The rats were killed by drawing their necks and were dissected, and their colon sections were histopathologically observed.

[6] = tested on: anhydrous ethanol-induced rat gastric mucosa damage; experiment: Anhydrous ethanol-induced rat gastric mucosa damage; format: in vivo, SD rats; settings: 100 mg/kg, ig; mean ± SD
Protocol: 60 SD rats with equal numbers of female and male were provided by the Experimental Animal Center of Nanjing Medical University, and the tests were conducted according to the methods in “Collection of Guidelines for Preclinical Studies of New Drugs (Western Medicines)” edited by China Ministry of Health.

[7] = tested on: PGE2 content in gastric mucosa; experiment: PGE2 content in gastric mucosa of rat with indomethacin-induced gastric ulcer (radioimmunoassay); format: in vivo, SD rats; settings: 100 mg/kg; mean ± SD
Protocol: 60 SD rats with a body weight of 180 to 200 g and equal numbers of male and female were used, Indomethacin was commercially available from Sigma Company. The PGE2 content was measured by radioimmunoassay. The tests were conducted according to the methods in “Drug Discovery and Evaluation—Pharmacological Assays” (H. G. Vogel, W. H. Vogel. Chinese version, translated by Du Guanhua, published by Science Publishing House).

**Q.** `CN/C(=N/CCSCc1nc[nH]c1C)NC#N` [Cimetidine] was tested. Which “Ulcer area (mm^2)” value [1] did it give?
**A.** The value was 44.7 ± 38.4 mm^2.

**Q.** And the Ulcer index [2]?
**A.** The Ulcer index was 15.8 ± 1.5.

**Q.** For `NC(N)=Nc1nc(CSCCC(N)=NS(N)(=O)=O)cs1` [Famotidine], which “Inhibition ratio (%)” value [3] is on record?
**A.** The value was 27.27%.

**Q.** And the Ulcer index ([3]; mean ± SD)?
**A.** The Ulcer index was 2.0 ± 1.3.

**Q.** What about the “Score of ulcer index” value ([4]; intragastric for 4 days) of the same molecule?
**A.** Its value is 4.14 ± 3.76.

**Q.** And the “Ratio of bowel weight to body weight (×10^−2)” value [4]?
**A.** Its value is 0.92 ± 0.45 ×10^−2.

**Q.** How did the “Amount of residual phenol red in stomach” value (mouse gastric emptying) turn out when `CN(C)C(=O)Oc1ccc[n+](C)c1` [Pyridostigmine bromide] was run?
**A.** Its value is 0.47 ± 0.36 mg.

**Q.** What about the “Gastric emptying ratio (%)” value (mouse gastric emptying) of the same molecule?
**A.** The value was 93.8 ± 4.8 %.

**Q.** With `O=C(O)c1cc(/N=N/c2ccc(S(=O)(=O)Nc3ccccn3)cc2)ccc1O` [Sulfasalazine] as the molecule, how does the “Increment of body weight” value [5] read?
**A.** The value was 68.89 ± 21.64.

**Q.** What does the source list for Bismuth Potassium Citrate?
**A.** Ulcer index [6]: 15.0 ± 6.0; PGE2 (pg/mg protein) [7]: 170 ± 104 pg/mg protein
